According to publication PMC9632963, “Preclinical characterization and phase I clinical trial of CT053PTSA targets MET, AXL, and VEGFR2 in patients with advanced solid tumors” (Frontiers in Immunology, 2022):

What was measured:
C-KIT = C-KIT (Homo sapiens, UniProt P10721); test: Kinase inhibition assay (LANCE or HTRF); type: biochemical; conditions: ATP at Km
Description: (§2) The IC50 values were determined by measuring phosphorylation of peptide substrate poly at ATP concentrations at the Km.

MERTK = MERTK (Homo sapiens, UniProt Q12866); test: Kinase inhibition assay (LANCE or HTRF); type: biochemical; conditions: ATP at Km
Description: as §2

Yes = Yes (Homo sapiens, UniProt P07947); test: Kinase inhibition assay (LANCE or HTRF); type: biochemical; conditions: ATP at Km
Yes, sequence (P07947 whole entry): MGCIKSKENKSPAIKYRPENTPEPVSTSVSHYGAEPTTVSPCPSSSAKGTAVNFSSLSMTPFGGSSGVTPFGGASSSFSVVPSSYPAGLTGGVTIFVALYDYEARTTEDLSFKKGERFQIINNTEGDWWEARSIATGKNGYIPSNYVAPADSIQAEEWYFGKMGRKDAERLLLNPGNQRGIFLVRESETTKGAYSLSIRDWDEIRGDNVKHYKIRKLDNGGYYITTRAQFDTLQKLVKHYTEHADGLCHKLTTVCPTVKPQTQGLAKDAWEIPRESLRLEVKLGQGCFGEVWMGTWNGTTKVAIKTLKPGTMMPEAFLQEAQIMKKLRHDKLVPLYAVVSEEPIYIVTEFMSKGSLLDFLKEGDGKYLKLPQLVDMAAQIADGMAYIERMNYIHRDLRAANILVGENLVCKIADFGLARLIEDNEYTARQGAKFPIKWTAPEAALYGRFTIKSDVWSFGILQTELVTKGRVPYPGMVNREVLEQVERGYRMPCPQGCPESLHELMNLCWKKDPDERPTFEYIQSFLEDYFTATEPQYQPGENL
Description: as §2

RET = RET (Homo sapiens, UniProt P07949); test: Kinase inhibition assay (LANCE or HTRF); type: biochemical; conditions: ATP at Km
RET, sequence (P07949 29-1114): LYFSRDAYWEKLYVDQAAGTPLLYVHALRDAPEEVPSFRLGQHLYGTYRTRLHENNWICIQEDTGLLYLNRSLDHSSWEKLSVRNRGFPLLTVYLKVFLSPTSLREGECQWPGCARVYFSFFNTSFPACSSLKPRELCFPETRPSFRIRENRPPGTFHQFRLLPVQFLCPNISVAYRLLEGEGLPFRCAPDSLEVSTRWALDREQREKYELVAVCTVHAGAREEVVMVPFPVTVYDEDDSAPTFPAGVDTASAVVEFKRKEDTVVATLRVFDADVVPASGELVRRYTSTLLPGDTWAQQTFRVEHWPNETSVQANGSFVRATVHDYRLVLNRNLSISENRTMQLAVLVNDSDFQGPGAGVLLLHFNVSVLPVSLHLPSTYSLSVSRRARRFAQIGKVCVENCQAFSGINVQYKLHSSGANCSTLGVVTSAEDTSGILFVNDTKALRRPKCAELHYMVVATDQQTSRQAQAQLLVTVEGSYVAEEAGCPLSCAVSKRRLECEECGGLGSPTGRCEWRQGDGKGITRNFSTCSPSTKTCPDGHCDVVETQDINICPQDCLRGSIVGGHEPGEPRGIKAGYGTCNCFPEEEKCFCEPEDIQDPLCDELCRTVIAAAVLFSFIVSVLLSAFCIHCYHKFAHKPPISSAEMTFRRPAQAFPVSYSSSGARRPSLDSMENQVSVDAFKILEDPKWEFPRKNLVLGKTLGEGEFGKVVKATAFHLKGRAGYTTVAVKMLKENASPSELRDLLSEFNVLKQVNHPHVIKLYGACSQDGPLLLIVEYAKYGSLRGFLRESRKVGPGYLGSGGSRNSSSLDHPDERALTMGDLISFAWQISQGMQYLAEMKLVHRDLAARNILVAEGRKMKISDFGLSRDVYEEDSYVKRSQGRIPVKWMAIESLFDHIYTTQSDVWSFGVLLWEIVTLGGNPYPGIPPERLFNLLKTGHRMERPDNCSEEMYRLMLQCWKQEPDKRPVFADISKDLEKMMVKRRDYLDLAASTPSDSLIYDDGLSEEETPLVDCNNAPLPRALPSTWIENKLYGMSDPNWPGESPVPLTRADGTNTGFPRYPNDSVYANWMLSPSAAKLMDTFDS
Description: as §2

MLK = test: Kinase inhibition assay (LANCE or HTRF); type: biochemical, human; conditions: ATP at Km
Description: as §2

AZ521 = test: Cell proliferation assay (CellTiter-Glo, 72 hours); type: cell-based; conditions: Homo sapiens, AZ-521, read-out: IC50 anti-proliferative
MKN-45 CDX xenografts = test: In vivo efficacy study, CDX model; set-up: species or system BALB/cA nude mice
Description: (§1) Human tumor xenografts were established in female BALB/cA nude mice (5-6 weeks old) by administering the SNU-5 and MKN-45 cells, which have high MET expression levels. For efficacy studies in patient-derived tumor xenograft (PDX) mouse models, MET-overexpressing GA0046 and GA3121 tumors (obtained from Crownbio, CA, USA) were established by directly implanting surgical tissues into immunodeficient mice. […] The subcutaneous tumor size and body weight were measured twice weekly. The tumor volumes were determined by measuring two perpendicular diameters with calipers and calculated as (length × width^2)/2.

SNU-5 CDX xenografts = test: In vivo efficacy study, CDX model; set-up: species or system BALB/cA nude mice
Description: as §1

phosphorylation of MET = test: Western blot of tumor lysates from GA3121 PDX model; type: in vivo, immunodeficient mice; conditions: 20 mg/kg, 21 days
Description: The SNU-5 cell line was selected for western blotting analysis of signaling molecules. […] Immunoreactive proteins (p-AXL, t-ERK and p-ERK) were visualized using the ECL system (Pierce Chemical, TX, USA). Other proteins were detected by Odyssey (LI-COR, NE, USA) at a wavelength of 700 nm or 800 nm. […] Tumor lysates were subjected to western blotting. The following antibodies were purchased from Cell Signaling Technology (Cell Signaling Technology Cat#3148, RRID : AB_1031042): anti-MET (Cell Signaling Technology Cat# 3148, RRID : AB_1031042), anti-p-MET Y1234/1235 (Antibodies-Online Cat# ABIN461461, RRID : AB_10786128), anti-AXL (Cell Signaling Technology Cat# 4566, RRID : AB_2062563), anti-p-AXL Y702 (5724S), anti-ERK (9107S), anti-p-ERK Thr202/Tyr204 (4370S), anti-p-AKT Ser473 (4060S), and anti-AKT (Cell Signaling Technology Cat# 2920, RRID : AB_1147620).
Human tumor xenografts were established in female BALB/cA nude mice (5-6 weeks old) by administering the SNU-5 and MKN-45 cells, which have high MET expression levels. […] The subcutaneous tumor size and body weight were measured twice weekly. The tumor volumes were determined by measuring two perpendicular diameters with calipers and calculated as (length × width^2)/2.

[1] = molecular target: KinomeScan panel of 95 kinase binding assays; test: KinomeScan kinase binding assay, panel of 95 kinase assays; conditions: 10 μM single concentration
Description: KinomeScan kinase binding assays were performed as described in reports i.
%Ctrl Calculation: [test compound signal-positive control signalnegative control signal-positive control signal]?100
test compound = compound submitted by Calitor; negative control = DMSO (100%Ctrl); positive control = control compound (0%Ctrl).

AXL = AXL (Homo sapiens, UniProt P30530); test: Kinase inhibition assay (LANCE or HTRF); type: biochemical; set-up: expressing full-length human AXL (AXL-MEFs); expressed in transfected cells; host or cells: mouse embryonic fibroblasts (MEFs); conditions: ATP at Km
AXL, sequence (P30530 26-894): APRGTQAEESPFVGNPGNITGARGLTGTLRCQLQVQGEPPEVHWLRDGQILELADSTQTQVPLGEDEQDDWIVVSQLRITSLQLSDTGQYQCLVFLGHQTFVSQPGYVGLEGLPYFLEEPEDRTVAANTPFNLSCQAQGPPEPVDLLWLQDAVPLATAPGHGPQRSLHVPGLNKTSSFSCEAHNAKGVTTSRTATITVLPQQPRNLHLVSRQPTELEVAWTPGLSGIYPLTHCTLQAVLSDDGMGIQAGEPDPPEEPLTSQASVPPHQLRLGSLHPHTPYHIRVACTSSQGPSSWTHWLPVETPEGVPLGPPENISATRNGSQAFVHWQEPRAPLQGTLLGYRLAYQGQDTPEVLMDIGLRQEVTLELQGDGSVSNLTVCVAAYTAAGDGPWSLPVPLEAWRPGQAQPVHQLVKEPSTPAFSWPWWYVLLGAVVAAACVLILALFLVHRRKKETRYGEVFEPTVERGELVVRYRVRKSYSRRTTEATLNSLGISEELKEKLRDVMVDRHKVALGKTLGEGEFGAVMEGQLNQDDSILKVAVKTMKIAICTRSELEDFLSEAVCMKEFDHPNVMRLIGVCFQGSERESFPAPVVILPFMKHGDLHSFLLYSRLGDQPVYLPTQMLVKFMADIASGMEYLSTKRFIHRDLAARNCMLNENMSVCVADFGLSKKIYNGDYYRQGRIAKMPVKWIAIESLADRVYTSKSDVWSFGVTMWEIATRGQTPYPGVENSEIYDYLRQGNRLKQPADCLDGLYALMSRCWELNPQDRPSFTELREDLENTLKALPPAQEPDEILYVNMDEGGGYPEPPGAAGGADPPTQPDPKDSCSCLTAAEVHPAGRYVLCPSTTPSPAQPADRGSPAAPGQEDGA
Description: as §2

[2] = tested on: circulating tumor DNA (ctDNA); test: Circulating tumor DNA sequencing in plasma of one NSCLC patient; type: in vivo, human
Description: Moreover, we analyzed the patient who achieved SD for 24 weeks. The patient was a person with EGFR exon 19-21 wild type, ALK negative non-small cell lung cancer (NSCLC). They had failed 1 line of platinum-based chemotherapy with a PFS of 27 months. […] The plasma of the patient was prospectively collection on the first day of cycle 1, 3, 6, whole exon sequencing of 416 genes was performed to assess circulating tumor DNA (ctDNA) with Illumina platform. […] The patient received 6-time tumor assessments, the response was classified as SD ( Figure 5E ), and the nontarget lesions remained unchanged ( Figure 5F ). However, the patient experienced tumor progression after 6 cycles of CT053PTSA administration, and which point, the target lesion enlarged.

[3] = 3 mg/kg once per day oral gavage

MERTK, sequence (Q12866 21-999): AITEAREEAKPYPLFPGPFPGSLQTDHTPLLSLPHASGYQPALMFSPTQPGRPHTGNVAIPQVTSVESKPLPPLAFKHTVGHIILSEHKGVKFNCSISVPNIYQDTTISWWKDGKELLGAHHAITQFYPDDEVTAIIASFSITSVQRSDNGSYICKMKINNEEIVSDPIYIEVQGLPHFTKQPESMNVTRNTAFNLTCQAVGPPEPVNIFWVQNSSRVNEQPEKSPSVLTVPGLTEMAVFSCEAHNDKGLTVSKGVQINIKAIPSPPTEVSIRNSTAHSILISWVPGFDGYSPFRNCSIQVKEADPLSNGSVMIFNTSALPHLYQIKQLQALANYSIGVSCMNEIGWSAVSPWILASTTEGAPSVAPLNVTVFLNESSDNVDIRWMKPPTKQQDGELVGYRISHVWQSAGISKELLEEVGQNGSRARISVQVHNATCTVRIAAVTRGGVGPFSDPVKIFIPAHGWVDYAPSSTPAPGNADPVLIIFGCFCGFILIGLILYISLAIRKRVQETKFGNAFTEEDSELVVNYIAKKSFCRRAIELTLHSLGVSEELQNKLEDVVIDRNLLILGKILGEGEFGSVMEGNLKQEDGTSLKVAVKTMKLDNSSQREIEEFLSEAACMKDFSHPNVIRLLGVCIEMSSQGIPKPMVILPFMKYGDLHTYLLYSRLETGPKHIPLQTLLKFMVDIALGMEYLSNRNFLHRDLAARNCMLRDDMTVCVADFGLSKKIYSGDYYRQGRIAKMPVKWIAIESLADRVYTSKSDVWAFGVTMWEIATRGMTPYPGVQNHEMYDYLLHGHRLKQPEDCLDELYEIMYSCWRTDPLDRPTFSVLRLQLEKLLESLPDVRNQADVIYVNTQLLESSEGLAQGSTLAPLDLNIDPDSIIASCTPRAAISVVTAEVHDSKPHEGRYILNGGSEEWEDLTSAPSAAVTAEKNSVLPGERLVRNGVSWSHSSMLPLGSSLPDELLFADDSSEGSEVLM
C-KIT, sequence (P10721 26-976): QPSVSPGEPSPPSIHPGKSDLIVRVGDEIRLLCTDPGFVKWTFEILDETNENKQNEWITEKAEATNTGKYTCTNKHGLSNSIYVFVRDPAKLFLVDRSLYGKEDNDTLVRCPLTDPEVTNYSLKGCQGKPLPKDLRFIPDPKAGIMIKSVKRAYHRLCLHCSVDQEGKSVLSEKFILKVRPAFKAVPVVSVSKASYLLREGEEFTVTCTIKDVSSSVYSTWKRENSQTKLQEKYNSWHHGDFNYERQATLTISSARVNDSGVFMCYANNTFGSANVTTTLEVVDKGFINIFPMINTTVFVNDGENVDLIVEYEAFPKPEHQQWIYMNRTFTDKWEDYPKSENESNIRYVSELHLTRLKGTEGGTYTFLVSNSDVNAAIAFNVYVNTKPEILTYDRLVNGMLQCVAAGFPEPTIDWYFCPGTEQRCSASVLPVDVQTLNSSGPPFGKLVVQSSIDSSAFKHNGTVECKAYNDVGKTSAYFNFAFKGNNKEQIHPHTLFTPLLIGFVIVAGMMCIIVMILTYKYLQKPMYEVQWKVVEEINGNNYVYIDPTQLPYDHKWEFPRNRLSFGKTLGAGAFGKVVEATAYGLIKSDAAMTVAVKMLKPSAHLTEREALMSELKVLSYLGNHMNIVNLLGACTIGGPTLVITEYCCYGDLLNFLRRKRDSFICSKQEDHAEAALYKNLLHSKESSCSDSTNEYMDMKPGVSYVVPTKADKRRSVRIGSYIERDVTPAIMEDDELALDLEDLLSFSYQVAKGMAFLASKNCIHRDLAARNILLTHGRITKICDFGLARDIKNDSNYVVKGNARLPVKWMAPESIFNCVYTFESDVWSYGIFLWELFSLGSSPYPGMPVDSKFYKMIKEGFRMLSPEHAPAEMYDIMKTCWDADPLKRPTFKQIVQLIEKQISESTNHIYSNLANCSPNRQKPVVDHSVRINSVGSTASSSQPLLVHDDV

Structure (SMILES): Cc1c(C(=O)Nc2ccc(Oc3ccnc4cc(OCC(C)(C)O)ccc34)c(F)c2)c(=O)n(-c2ccccc2)n1C [CT053]
- IC50 (C-KIT): 960 nM
- IC50 (MERTK): 14 nM
- IC50 (Yes): 110 nM
- IC50 (RET): 200 nM
- IC50 (MLK): 160 nM
- IC50 (AZ521): > 10000 nM
- TGI (MKN-45 CDX xenografts; [3]): 31%
- TGI (MKN-45 CDX xenografts; 10 mg/kg once per day oral gavage): 85%
- TGI (MKN-45 CDX xenografts; 20 mg/kg once per day oral gavage): 97%
- TGI (SNU-5 CDX xenografts; 1 mg/kg once per day oral gavage): 32%
- TGI (SNU-5 CDX xenografts; [3]): 87%
- phosphorylation of MET in tumors vs vehicle (phosphorylation of MET): significantly inhibited
- kinase interaction pattern [1]: highly specific
- IC50 (AXL): 3.4 nM

Structure (SMILES): Cc1c(C(=O)Nc2ccc(Oc3ccnc4cc(OCC(C)(C)O)ccc34)c(F)c2)c(=O)n(-c2ccccc2)n1C [CT053PTSA]
- ctDNA APC p.E520X (c. G1558T) ([2]; Cycle 1, 60 mg): 0%
- ctDNA AXL p. A79T (c. G235A) ([2]; Cycle 1, 60 mg): 0%
- ctDNA BRCA1 p.E344X (c. G1030T) ([2]; Cycle 1, 60 mg): 0.32%
- ctDNA EGFR p. F712Y (c. T2135A) ([2]; Cycle 1, 60 mg): 0.12%
- ctDNA FLT3 p.p893L (c.C2678T) ([2]; Cycle 1, 60 mg): 0%
- ctDNA FLT4 p.D998V (c.A2993T) ([2]; Cycle 1, 60 mg): 0%
- ctDNA FP300 p.Q2332X (c.C6994T) ([2]; Cycle 1, 60 mg): 0.19%
- ctDNA PALB2 p.C800X (c.T2400A) ([2]; Cycle 1, 60 mg): 0%
- ctDNA APC p.E520X (c. G1558T) ([2]; Cycle 3, 60 mg): 0%
- ctDNA AXL p. A79T (c. G235A) ([2]; Cycle 3, 60 mg): 0%
- ctDNA BRCA1 p.E344X (c. G1030T) ([2]; Cycle 3, 60 mg): 0.12%
- ctDNA EGFR p. F712Y (c. T2135A) ([2]; Cycle 3, 60 mg): 0%
- ctDNA FLT3 p.p893L (c.C2678T) ([2]; Cycle 3, 60 mg): 0%
- ctDNA FLT4 p.D998V (c.A2993T) ([2]; Cycle 3, 60 mg): 0%
- ctDNA FP300 p.Q2332X (c.C6994T) ([2]; Cycle 3, 60 mg): 0.21%
- ctDNA PALB2 p.C800X (c.T2400A) ([2]; Cycle 3, 60 mg): 0%
- ctDNA APC p.E520X (c. G1558T) ([2]; Cycle 6, 60 mg): 0%
- ctDNA AXL p. A79T (c. G235A) ([2]; Cycle 6, 60 mg): 0%
- ctDNA BRCA1 p.E344X (c. G1030T) ([2]; Cycle 6, 60 mg): 0%
- ctDNA EGFR p. F712Y (c. T2135A) ([2]; Cycle 6, 60 mg): 0%
- ctDNA FLT3 p.p893L (c.C2678T) ([2]; Cycle 6, 60 mg): 0%
- ctDNA FLT4 p.D998V (c.A2993T) ([2]; Cycle 6, 60 mg): 0%
- ctDNA FP300 p.Q2332X (c.C6994T) ([2]; Cycle 6, 60 mg): 0%
- ctDNA PALB2 p.C800X (c.T2400A) ([2]; Cycle 6, 60 mg): 0%
